How the values were obtained:
[1] = system: ZR-75-1 breast cancer cells; assay type: cell-based, human
Procedure: Unless otherwise stated, cells were grown in DMEM with 10% fetal bovine serum (FBS), […] in a humidified 37° C. incubator gassed with 5% CO2 and 95% room air. Cells were grown to subconfluence in either 24-well cluster plates or 100 mm dishes and made quiescent by treatment for 48 h with serum-depleted growth media, prior to the experiments outlined below to measure cell growth (^3H-thymidine incorporation), cell signaling or apoptosis.
[…] Subsequently, the cell monolayer was washed with cold phosphate-buffered saline (PBS; 50 mM NaPO4, 120 mM NaCl, pH=7.2). The adherent cells were precipitated with cold 10% TCA (4° C. for 30 min) and dissolved in 0.2% SDS in 0.1 N NaOH. Incorporated ^3H-thymidine was determined by liquid scintillation spectrometry, as previously described (Freeman, E. J. et al., Hypertension, 1996, 28:104-108). Growth inhibition was defined as a reduction in the amount of ^3H-thymidine incorporation as compared to the mitogen-stimulated controls.

ERK1 = conditions: SK-LU-1, 10 nM pretreatment; Gallagher et al., 2004; cited from earlier work
[2] = rats, Strawn 1999, cited from earlier work
[3] = system: ZR-75-1 breast cancer cells; conditions: U.S. Pat. No. 7,375,073; cited from earlier work
[4] = system: lung tumors in Ki-ras^G12C mice; experiment: Ki-ras^G12C bi-transgenic mouse model of lung tumorigenesis, DOX-induced; assay type: in vivo
Procedure: Tumors were fixed with 4% paraformaldehyde for 24 h and incubated in 70% ethanol for 48 h prior to embedding in paraffin. The embedded tumors were cut into five micron thick sections and stained with hematoxylin and eosin to determine morphology. Cell proliferation in the tumors was detected by immunostaining with an antibody to Ki67 (1:25; Abcam, Cambridge, Mass.) using the labeled streptavidin biotin method, as described previously (Floyd et al., Carcinogenesis, 2005, 26:2196-2206). Stained sections were visualized and photographed with a video image analysis system (Scion, Inc., Frederick, Md.) and public domain software (NIH Image v1.60). A computer-assisted counting technique with a grid filter to select cells was used to quantify the immunohistochemical staining of Ki67 (Stute et al., Fertil. Steril., 2004, 82:1160-1170). The positive cells were expressed as a percentage of the total cell number examined (100 cells sampled from each tissue site within each lung tumor section).
A novel model for the induction of lung tumors in mice, a bi-transgenic mouse that expresses the mutant human Ki-ras^G12C allele in a tet-inducible and lung-specific manner was generously supplied by Dr. Mark Miller of the Department of Cancer Biology, Wake Forest University School of Medicine, for use in these experiments.
For these experiments, sixteen (16) bi-transgenic mice were produced by crossing mono-transgenic Ki-ras^G12C mice with Clara cell secretory protein-reverse tet trans-activator (CCSP-rtTA) transgenic mice. The presence of both transgenes was verified by genotyping.

In the case of `CC[C@H](C)[C@H](NC(=O)[C@H](Cc1ccc(O)cc1)NC(=O)[C@@H](NC(=O)[C@H](CCCNC(=N)N)NC(=O)[C@@H](N)CC(=O)O)C(C)C)C(=O)N[C@@H](Cc1c[nH]cn1)C(=O)N1CCC[C@H]1C(=O)O` [Ang-(1-7), Asp-Arg-Val-Tyr-Ile-His-Pro], the IC50 ([1]; 48 h) is reported as 0.02 nM, the maximal inhibition ([1]; ZR-75-1) is reported as 37.2±6.1 and the “^3H-thymidine incorporation over time of treatment” value ([1]; ZR-75-1, 1% FBS, daily addition of 100 nM) is reported as “progressively reduced”. The “reduction of serum-stimulated phosphorylation of ERK1” value (ERK1) was 61%, the “Ang-(1-7) in the circulation” value ([2]; 24 μg/kg/h intravenous, 12 days, n=6-8, from 0.052±0.005) was 0.185 ± 0.046 nM and the “tolerability: weight, blood pressure, heart rate” value ([2]; 24 μg/kg/hr) was “no change in weight, blood pressure, or heart rate”. The “inhibition of PDGF- or EGF-stimulated ^3H-thymidine incorporation” value [3] was “at least 50%”, the “Ki67 immunoreactivity in hyperplastic lesion” value ([4]; 24 μg/kg/h infusion, 84 days, saline: abundant, robust staining) was “little immunoreactivity” and the “adverse reactions or gross pathological abnormalities” value ([4]; 24 μg/kg/h intravenous infusion, 84 days) was “No adverse reactions or gross pathological abnormalities”. For the same molecule, the lung tumor multiplicity ([4]; 24 μg/kg/h intravenous infusion, 84 days, n=8, saline 12.75±1.04) was 6.4±0.87 tumors/mice, the “CD34 positive cells in pulmonary lesions” value ([4]; Ang-(1-7) infusion, n=7, saline 63.5±6.1 (n=8), percentage of total cell number per FIG. 16 legend) was 37.7±5.2 and the “proportion of COX-2 positive cells in hyperplasias and adenomas” value ([4]; Ang-(1-7) infusion, n=7, saline 68.8±10.2% (n=8)) was 29.3±8.2%. The “reduction in the development of new tumors” value ([4]; Ki-ras/CCSP-rtTA bi-transgenic mice, FIG. 2) was “about 50%”, the “reduction in the proportion of COX-2 positive cells” value ([4]; versus saline) was ~50% and the “reduction in CD34 positive cells” value ([4]; versus saline-treated animals) was ~40%.

Reference: patent US20140296143A1, “Angiotensin-(1-7) As A Chemoprevention Agent” (Wake Forest Innovations, priority 2008, published 2014)
